In US12049467B2 (The Johns Hopkins University, priority 2021, dated 2024):

These molecules were tested against T1, GABAA (α3β2γ2) subtype (Homo sapiens, UniProt P18507+P34903) (assay: Automated patch-clamp (QPatch) modulation of GABA-activated currents in cells stably transfected with GABAA (α3β2γ2) channels). Conditions: stably transfected Ltk cells, 2.0 μM GABA (submaximal), whole-cell patch, holding potential −80 mV; Emax = upper asymptote of dose-response fit.
T1 construct: expressed in transfected cells
T1 sequence (P34903 29-492): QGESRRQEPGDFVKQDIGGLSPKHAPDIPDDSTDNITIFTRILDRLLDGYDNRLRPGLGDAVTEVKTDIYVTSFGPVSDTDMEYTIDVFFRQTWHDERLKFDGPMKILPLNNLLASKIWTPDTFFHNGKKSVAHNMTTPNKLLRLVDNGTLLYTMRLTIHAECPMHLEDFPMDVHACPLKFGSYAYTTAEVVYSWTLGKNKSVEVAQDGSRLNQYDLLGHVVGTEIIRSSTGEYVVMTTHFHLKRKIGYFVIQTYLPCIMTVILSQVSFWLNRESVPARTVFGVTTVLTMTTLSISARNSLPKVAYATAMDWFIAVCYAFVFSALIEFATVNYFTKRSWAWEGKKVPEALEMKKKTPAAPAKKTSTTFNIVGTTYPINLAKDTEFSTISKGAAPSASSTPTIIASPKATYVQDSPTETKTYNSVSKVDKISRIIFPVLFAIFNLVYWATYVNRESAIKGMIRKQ
T1 sequence (P47870 25-512 partner limits assumed): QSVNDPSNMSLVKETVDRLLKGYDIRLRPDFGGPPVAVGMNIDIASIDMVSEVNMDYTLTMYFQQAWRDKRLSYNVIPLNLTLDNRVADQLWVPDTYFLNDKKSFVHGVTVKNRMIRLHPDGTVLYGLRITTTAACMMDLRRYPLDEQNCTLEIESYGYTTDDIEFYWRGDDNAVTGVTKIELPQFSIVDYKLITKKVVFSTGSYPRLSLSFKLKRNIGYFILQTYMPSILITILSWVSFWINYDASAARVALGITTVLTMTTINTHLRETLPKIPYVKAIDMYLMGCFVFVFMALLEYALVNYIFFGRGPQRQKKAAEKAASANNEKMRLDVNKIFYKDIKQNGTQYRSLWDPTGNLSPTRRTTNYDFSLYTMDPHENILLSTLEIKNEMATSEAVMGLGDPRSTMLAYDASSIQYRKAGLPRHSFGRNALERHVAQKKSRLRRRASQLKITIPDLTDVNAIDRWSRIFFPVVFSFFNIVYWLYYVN
T1 sequence (P18507 40-475): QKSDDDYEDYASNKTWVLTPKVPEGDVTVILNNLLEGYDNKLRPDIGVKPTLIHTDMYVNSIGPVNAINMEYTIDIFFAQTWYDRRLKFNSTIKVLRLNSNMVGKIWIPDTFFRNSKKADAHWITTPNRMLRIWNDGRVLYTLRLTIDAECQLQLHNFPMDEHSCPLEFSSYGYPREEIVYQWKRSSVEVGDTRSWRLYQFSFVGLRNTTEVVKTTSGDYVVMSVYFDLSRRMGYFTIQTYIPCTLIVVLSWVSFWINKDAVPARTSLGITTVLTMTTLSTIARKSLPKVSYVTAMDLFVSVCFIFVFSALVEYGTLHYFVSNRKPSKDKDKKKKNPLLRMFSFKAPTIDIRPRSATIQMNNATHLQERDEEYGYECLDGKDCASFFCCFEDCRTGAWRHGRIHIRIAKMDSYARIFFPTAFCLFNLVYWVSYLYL
Assay type: cell-based
Description: Modulatory effects of the compounds of this disclosure were investigated using cells stably transfected with GABA-activated channels of the GABAA (α3β2γ2) subtype together with submaximal GABA concentrations. Expression of GABA receptor were induced by adding Dexamethasone to the cells for 24 to 48 h before experimentation. In general, cells were passaged at a confluence of about 80 to 90%. For electrophysiological measurements cells were harvested at a confluence of about 80 to 90% from sterile culture flasks containing culture complete medium. Cells were transferred as suspension in PBS to the QPatch 16X or QPatch HTX system to the centrifuge/washer directly. Cells were incubated at 37° C. in a humidified atmosphere with 5% CO2 (rel. humidity about 95%). The cells were continuously maintained in and passaged in sterile culture flasks containing a 1:1 mixture of Dulbecco's modified eagle medium and nutrient mixture D-MEM/F-12 (1×, liquid, with L-Glutamine), supplemented with 10% foetal bovine serum and 1.0% Penicillin/Streptomycin solution and neomycin. The 1× bath solution was made at least every 5 days out of a sterile lox bath solution, which had been prepared prior to the experimental start of the present study and stored at 1° C. to 9° C. The final bath solution included Sodium Chloride 137 mM, Potassium Chloride 4 mM, Calcium Chloride 1.8 mM, Magnesium Chloride 1 mM, HEPES 10 mM, D-Glucose 10 mM, pH (NaOH) 7.4. The 1× intracellular solution was thawed every day and includes Potassium Chloride 130 mM, Magnesium Chloride 1 mM, Mg-ATP 5 mM, HEPES 10 mM, EGTA 5 Mm, pH (KOH) 7.2. Automated patch-clamping: Cells were transferred as suspension in serum-free medium to the QPatch HTX system and kept in the cell storage tank during experiments. All solutions applied to cells including the intracellular solution were maintained at room temperature (19° C. to 30° C.). After formation of a Gigaohm seal between the patch electrodes and transfected individual Ltk cells were ruptured to assure electrical access to the cell interior (whole-cell patch-configuration). Inward currents were measured upon application of 2.0 μM GABA to patch-clamped cells for 4 s. During the entire experiment the cells were voltage-clamped at a holding potential of −80 mV. For the analysis of test items, GABAA receptors were stimulated by 2.0 μM GABA and test item combinations described below. Thirty-second prewash steps with test items was performed in between two agonist applications. The dose-response curve was fit with a sigmoidal three parameter equation current=Emax/1+10^((Log EC50−X)*H) where X is the compound concentration, Emax the upper asymptote, EC50 the concentration of test item at half maximal effect, and H is the Hill coefficient. SigmaPlot 11.0 was used for construction of curve.

`O=C(O)c1cc2n(n1)-c1ccc(Cl)cc1C(c1ccccc1)=NC2` [Example 29, 8-chloro-6-phenyl-4H-benzo[f]pyrazolo[1,5-a][1,4]diazepine-2-carboxylic acid] and `O=C(O)c1cc2n(n1)-c1ccc(Cl)cc1C(c1ccccc1Br)=NC2` [Example 13, 6-(2-bromophenyl)-8-chloro-4H-pyrazolo[1,5-a][1,4]benzodiazepine-2-carboxylic acid] cannot be ordered by Emax: > 100% for the first, > 100% for the second.

`O=C(O)c1cc2n(n1)-c1ccc(Cl)cc1C(c1ccccc1F)=[N+]([O-])C2` [Example 23, 8-chloro-6-(2-fluorophenyl)-5-oxido-4H-pyrazolo[1,5-a][1,4]benzodiazepin-5-ium-2-carboxylic Acid] and `O=C(O)c1cc2n(n1)-c1ccc(Cl)cc1C(c1ccccc1F)=NC2` [Example 1, 8-chloro-6-(2-fluorophenyl)-4H-pyrazolo[1,5-a][1,4]benzodiazepine-2-carboxylic acid] cannot be ordered by Emax: > 100% for the first, > 100% for the second.

Going from `O=C(O)c1cc2n(n1)-c1cc(Cl)ccc1C(c1ccccc1F)=NC2` [Example 12] to `O=C(O)c1cc2n(n1)-c1ccc(Br)cc1C(c1ccccc1F)=NC2` [Example 7, 8-bromo-6-(2-fluorophenyl)-4H-pyrazolo[1,5-a][1,4]benzodiazepine-2-carboxylic acid], the Emax rises from < 50% to > 100%.

First: O=C(O)c1cc2n(n1)-c1ccc(Cl)cc1C(c1c(F)cccc1F)=NC2 [Example 14, 8-chloro-6-(2,6-difluorophenyl)-4H-pyrazolo[1,5-a][1,4]benzodiazepine-2-carboxylic acid]
Second: O=C(O)c1cc2n(n1)-c1ccc(Cl)cc1C(c1cccc(F)c1F)=NC2 [Example 16]
The Emax of the first is lower: 51 to 100% for the first, > 100% for the second.

`O=C(O)c1cc2n(n1)-c1ccc(OC(F)(F)F)cc1C(c1ccccc1F)=NC2` [Example 11, 6-(2-fluorophenyl)-8-(trifluoromethoxy)-4H-pyrazolo[1,5-a][1,4]benzodiazepine-2-carboxylic acid] and `O=C(O)c1cc2n(n1)-c1ccc(C(F)(F)F)cc1C(c1ccccc1F)=NC2` [Example 10, 6-(2-fluorophenyl)-8-(trifluoromethyl)-4H-pyrazolo[1,5-a][1,4]benzodiazepine-2-carboxylic acid] cannot be ordered by Emax: > 100% for the first, > 100% for the second.

`Cc1c(C(=O)O)nn2c1CN=C(c1ccccc1F)c1cc(Cl)ccc1-2` [Example 19, 12-Chloro-9-(2-fluorophenyl)-5-methyl-2,3,8-triazatricyclo[8.4.0.0^2,6]tetradeca-1(10),3,5,8,11,13-hexaene-4-carboxylic Acid] and `O=C(O)c1nn2c(c1Br)CN=C(c1ccccc1F)c1cc(Cl)ccc1-2` [Example 21, 3-bromo-8-chloro-6-(2-fluorophenyl)-4H-pyrazolo[1,5-a][1,4]benzodiazepine-2-carboxylic Acid] cannot be ordered by Emax: > 100% for the first, > 100% for the second.

Going from `C[Si](C)(C)c1ccc2c(c1)C(c1ccccc1F)=NCc1cc(C(=O)O)nn1-2` [Example 8, 6-(2-fluorophenyl)-8-trimethylsilyl-4H-pyrazolo[1,5-a][1,4]benzodiazepine-2-carboxylic acid] to `Cc1ccc2c(c1)C(c1ccccc1F)=NCc1cc(C(=O)O)nn1-2` [Example 4, 6-(2-fluorophenyl)-8-methyl-4H-pyrazolo[1,5-a][1,4]benzodiazepine-2-carboxylic acid], the Emax rises from < 50% to > 100%.

`NS(=O)(=O)NCCNC(=O)c1cnn2c1CN=C(c1ccccc1F)c1cc(Cl)ccc1-2` [Example 28, 8-chloro-6-(2-fluorophenyl)-N-[2-(sulfamoylamino)ethyl]-4H-pyrazolo[1,5-a][1,4]benzodiazepine-3-carboxamide] and `NC(=O)NCCNC(=O)c1cnn2c1CN=C(c1ccccc1F)c1cc(Cl)ccc1-2` [Example 26, 8-chloro-6-(2-fluorophenyl)-N-(2-ureidoethyl)-4H-pyrazolo[1,5-a][1,4]benzodiazepine-3-carboxamide] cannot be ordered by Emax: > 100% for the first, > 100% for the second.

Compared with `CC1N=C(c2ccccc2F)c2cc(Cl)ccc2-n2nc(C(=O)O)cc21` (centres unmarked) [Example 20, 12-Chloro-9-(2-fluorophenyl)-7-methyl-2,3,8-triazatricyclo[8.4.0.0^2,6]tetradeca-1(10),3,5,8,11,13-hexaene-4-carboxylic acid], `O=C(O)c1cc2n(n1)-c1ccc(Cl)cc1C(c1ccccc1F)=NC2O` (centres unmarked) [Example 24, 8-chloro-6-(2-fluorophenyl)-4-hydroxy-4H-benzo[f]pyrazolo[1,5-a][1,4]diazepine-2-carboxylic Acid] is lower in Emax: > 100% for the first, < 50% for the second.

`NC(=O)NCCNC(=O)c1cc2n(n1)-c1ccc(Cl)cc1C(c1ccccc1F)=NC2` [Example 25, 8-chloro-6-(2-fluorophenyl)-N-(2-ureidoethyl)-4H-benzo[f]pyrazolo[1,5-a][1,4]diazepine-2-carboxamide] and `NS(=O)(=O)NCCNC(=O)c1cc2n(n1)-c1ccc(Cl)cc1C(c1ccccc1F)=NC2` [Example 27, 8-chloro-6-(2-fluorophenyl)-N-[2-(sulfamoylamino)ethyl]-4H-pyrazolo[1,5-a][1,4]benzodiazepine-2-carboxamide] fall in the same range of Emax: 51 to 100% for the first, 51 to 100% for the second.

Compared with `O=C(O)c1cc2n(n1)-c1ccccc1C(c1ccccc1F)=NC2` [Example 5, 6-(2-fluorophenyl)-4H-pyrazolo[1,5-a][1,4]benzodiazepine-2-carboxylic acid], `C#Cc1ccc2c(c1)C(c1ccccc1F)=NCc1cc(C(=O)O)nn1-2` [Example 2, 8-ethynyl-6-(2-fluorophenyl)-4H-pyrazolo[1,5-a][1,4]benzodiazepine-2-carboxylic acid] is higher in Emax: < 50% for the first, > 100% for the second.

`O=C(O)c1cc2n(n1)-c1ccc(SC(F)(F)F)cc1C(c1ccccc1F)=NC2` [Example 9, 6-(2-fluorophenyl)-8-(trifluoromethylsulfanyl)-4H-pyrazolo[1,5-a][1,4]benzodiazepine-2-carboxylic acid] and `O=C(O)c1cc2n(n1)-c1ccc(C3CC3)cc1C(c1ccccc1F)=NC2` [Example 3, 8-cyclopropyl-6-(2-fluorophenyl)-4H-pyrazolo[1,5-a][1,4]benzodiazepine-2-carboxylic acid] cannot be ordered by Emax: > 100% for the first, > 100% for the second.

`O=C(O)c1cnn2c1CN=C(c1ccccc1F)c1cc(Cl)ccc1-2` [Example 17, 12-Chloro-9-(2-fluorophenyl)-2,3,8-triazatricyclo[8.4.0.0^2,6]tetradeca-1(10),3,5,8,11,13-hexaene-5-carboxylic Acid] and `Cc1ccc2c(c1)C(c1ccccc1F)=NCc1c(C(=O)O)cnn1-2` [Example 18, 6-(2-fluorophenyl)-8-methyl-4H-pyrazolo[1,5-a][1,4]benzodiazepine-3-carboxylic acid] cannot be ordered by Emax: > 100% for the first, > 100% for the second.

Compared with `O=C(O)c1cc2n(n1)-c1ccc(-c3ccccc3)cc1C(c1ccccc1F)=NC2` [Example 6, 6-(2-fluorophenyl)-8-phenyl-4H-pyrazolo[1,5-a][1,4]benzodiazepine-2-carboxylic acid], `O=C(O)c1cc2n(n1)-c1ccc(Cl)cc1C(c1ccccc1Cl)=NC2` [Example 15, 8-chloro-6-(2-chlorophenyl)-4H-pyrazolo[1,5-a][1,4]benzodiazepine-2-carboxylic acid] is higher in Emax: < 50% for the first, > 100% for the second.

With `O=C(O)c1nn2c(c1Cl)CN=C(c1ccccc1F)c1cc(Cl)ccc1-2` [Example 22, 3,8-dichloro-6-(2-fluorophenyl)-4H-pyrazolo[1,5-a][1,4]benzodiazepine-2-carboxylic acid] the Emax was 51 to 100%.
